Results from patent publication US20240424132A1, “ATHEROSCLEROSIS-TARGETED LIPOSOME NANOCARRIER DELIVERY SYSTEM AND PREPARATION METHOD THEREFOR” (Beijing Inno Medicine Co., Ltd., priority 2021, published 2024).

Tested on: arterial plaques
Assay: In vivo therapeutic effect on arterial plaques (carotid MRI, percentage of plaque volume progression)
Parameters: species or system ApoE−/− mice
Settings: 0.66 mg rosuvastatin per kg, once every other day, 4 weeks
Experimental: (1) A normal saline solution of free rosuvastatin was prepared, and a nanodelivery system loaded with the therapeutic agent was prepared by the method described in the above Example 2. SPF-grade ApoE−/− mice (42 mice, 5-6 weeks old, weight 20±1 g) were taken as assay animals. The mice were fed an adaptive high-fat diet (fat 10% (w/w), cholesterol 2% (w/w), sodium cholate 0.5% (w/w), and the rest being normal feed for mice) for 4 weeks, and then anaesthetized via intraperitoneal injection of 1% sodium pentobarbital (prepared by adding […] of sodium pentobarbital to 100 ml of normal saline) at a dose of 40 mg/kg. Then, the mice were fixed on the surgical plate in the supine position, and disinfected around the neck with 75% (v/v) alcohol. The neck skin was cut longitudinally, and the anterior cervical gland was bluntly separated, and the beating left common carotid artery can be observed on the left side of the trachea. The common carotid artery was carefully separated to the bifurcation. A silicone cannula with a length of 2.5 mm and an inner size of 0.3 mm was placed on the outer periphery of the left common carotid artery. […] For animals in each group, carotid MRI scans were performed before and after treatment weekly to detect plaque and lumen area, and the percentage of plaque volume progression was calculated based on the scanned thickness. […]

## CC(C)c1nc(N(C)S(C)(=O)=O)nc(-c2ccc(F)cc2)c1/C=C/[C@@H](O)C[C@@H](O)CC(=O)O [free rosuvastatin, rosuvastatin]
intravenous
  therapeutic effect on plaques, intravenous administration: cannot exhibit the therapeutic effect of reversing plaques
oral
  therapeutic effect on plaques, oral administration: cannot exhibit the therapeutic effect of reversing plaques
